# Reference: article PMC8198049, “Synthesis and Evaluation of the Tetracyclic Ring-System of Isocryptolepine and Regioisomers for Antimalarial, Antiproliferative and Antimicrobial Activities” (Molecules, 2021)
# Counter-ions that a name gives are not always drawn. Like-named read-outs stand apart in the source and are kept apart here.
# Legend:
# [1] = Cytotoxicity assay (resazurin-based viability); format: cell-based; settings: human, HEK293 cells, mean ± standard deviation, two separate experiments
# Protocol: Fluorescence was measured using an EnSight plate reader (PerkinElmer, Waltham, MA, USA).
# S. aureus (ATCC 25923) = test: Bacterial growth inhibition assay; format: cell-based, Staphylococcus aureus; settings: Staphylococcus aureus, ATCC25923
# Protocol: (§1) The prepared samples were tested for in vitro antimicrobial activity against E. faecalis, E. coli, P. aeruginosa, S. aureus, Streptococcus agalactiae and S. epidermis using gentamycin as a reference compound.
# (§2) To determine and quantify antimicrobial activity, a bacteria growth inhibition assay in liquid media was executed. Compounds 2–3, 4, 8–10, 13–14, 16, 18, and 20 were tested against Staphylococcus aureus (ATCC 25923), Escherichia coli (ATCC 259233), Enterococcus faecialis (ATCC 29122), Pseudomonas aeruginosa (ATCC 27853) and Streptococcus agalactiae (ATCC 12386); all strains from LGC Standards (Teddington, UK). S. aureus, E. coli, and P. aeruginosa were grown in Muller Hinton broth (275730, Becton, Franklin Lakes, NJ, USA). E. faecalis and S. agalactiae were cultured in brain hearth infusion broth (53286, Sigma, St Louise, MO, USA). Fresh bacterial colonies were transferred in the respective medium and incubated at 37 °C overnight. The bacterial cultures were diluted to a culture density representing the log phase and µL/well were pipetted into a 96-well microtiter plate (734–2097, NunclonTM, Thermo Scientific, Waltham, MA, USA). The final cell density was 1500–15.000 colony forming units/well. The compound was diluted in 2% (v/v) DMSO in ddH2O, providing a final assay concentration of 50% of the prepared sample, since 50 µL of sample in DMSO/water were added to 50 µL bacterial culture. After adding the samples to the plates, they were incubated overnight at 37 °C and the growth was determined by measuring the optical density at λ = 600 nm (OD600) with a 1420 Multilabel Counter VICTOR3TM (Perkin Elmer, Waltham, MA, USA). A water sample was used as a reference control, growth medium without bacteria was used as a negative control and dilution series of gentamycin (A2712, Merck, Darmstadt, DE) from 32 to 0.01 µg/mL was used as positive control and visually inspected for bacterial growth. The positive control was used as a system suitability test and the results of the antimicrobial assay were only considered valid when positive control was passed. The final concentration of DMSO in the assays was ≤2% (v/v) and was known to have no effect in the tested bacteria. The data was processed using GraphPad Prism 8.
# E. faecalis (ATCC 29122) = test: Bacterial growth inhibition assay; format: cell-based, Enterococcus faecialis; settings: Enterococcus faecalis, ATCC29122
# Protocol: as §1, §2
# [2] = tested on: Plasmodium falciparum 3D7 strain; test: Antiplasmodial imaging assay; format: cell-based; settings: P. falciparum 3D7, 72 h, mean ± standard deviation, two separate experiments; for IC50: Plasmodium falciparum
# Protocol: (§3) Compounds tested in the antiproliferative assays were tested in 11 dilution points (0.02 µM–40 µM or 0.04 µM–80 µM).
# (§4) Antiplasmodial activity was determined as previously described by Duffy and Avery. […] After incubation, plates were stained with 4’,6-diamidino-2-phenylindole (DAPI) in a permeabilization buffer for 5 h at rt in the dark. Plates were imaged on the Opera confocal microplate image reader (PerkinElmer).
# [3] = Antiplasmodial imaging assay; format: cell-based, Plasmodium falciparum; settings: human (HEK293) and Plasmodium falciparum (3D7)
# Protocol: as §3, §4
# [4] = tested on: MDA-MB-231 (human breast adenocarcinoma); test: Antiproliferative assay (resazurin); format: cell-based; settings: for IC50: Homo sapiens, MDA-MB-231, 72 h compound incubation, mean ± sem, two separate experiments
# Protocol: (§5) Compounds tested in the antiproliferative assays were tested in 11 dilution points (0.02 µM–40 µM or 0.04 µM–80 µM). […] HCT116 cells were maintained in McCoy’s 5A media (Life Technologies, CA, USA), MDA-MB-231 cells were cultured in DMEM media (Life Technologies) with 10 mM HEPES (Life Technologies), whilst PC-3 cells were maintained in RPMI media (Life Technologies). All media were supplemented with 10% heat-inactivated fetal bovine serum (Australian source; Corning, CA, USA) and all cells were incubated at 37 °C in a humidified incubator with 5% CO2. Cells were seeded in 384-well plates (Greiner Bio-One, NC, USA) using the respective complete media. After 24 h cell seeding, compounds were added and antiproliferative activity was determined using the resazurin assay after 72 h compound incubation. Briefly, cells were incubated with 60 µM resazurin (Cayman, MI, USA) for 6 h at 37 °C and fluorescence signals were measured using a microplate reader (EnSight, PerkinElmer, Waltham, MA, USA).
# [5] = tested on: PC-3 (human prostate cancer); test: Antiproliferative assay (resazurin); format: cell-based; settings: for IC50: Homo sapiens, 72 h compound incubation, mean ± sem, two separate experiments; for % at 40 µM (PC-3): PC-3, 40 µM
# Protocol: as §5
# [6] = tested on: HCT116 (human colon cancer); test: Antiproliferative assay (resazurin); format: cell-based; settings: for IC50: Homo sapiens, HCT-116, 72 h compound incubation, mean ± sem, two separate experiments
# Protocol: as §5
# [7] = tested on: HCT116, MDA-MB-231 and PC-3; test: Antiproliferative assay, whole panel of cancer cell lines; format: cell-based, human
# Protocol: as §5
# [8] = tested on: S. epidermis (ATCC 35984); test: Biofilm formation inhibition assay; format: cell-based, Staphylococcus epidermidis; settings: inhibition of biofilm formation
# Protocol: as §1
# For testing the inhibition of biofilm formation, the biofilm-producing Staphylococcus epidermidis (ATCC 35984) was grown in Tryptic Soy Broth (TSB, 105459, Merck, Kenilworth, NJ, USA) overnight at 37 °C. The overnight culture was diluted in fresh medium with 1% glucose (D9434, Sigma) before being transferred to a 96-well microtiter plate; 50 µL/well were incubated overnight with 50 µL of the test compound dissolved in 2% (v/v) DMSO aq. added in duplicates. The bacterial culture was removed from the plate and the plate was washed with tap water. The biofilm was fixed at 65 °C for 1 h before 70 µL 0.1% crystal violet (115940, Millipore, Burlington, MA, USA) was added to the wells for 10 min of incubation and 70 µL of 70% ethanol was then added to each well and the plate incubated on a shaker for 5–10 min. Biofilm formation inhibition was assessed by the presence of violet color and measured at […] absorbance using a 1420 Multilabel Counter VICTOR3TM; 50 µL of a non-biofilm forming Staphylococcus haemolyticus (clinical isolate 8-7A, University Hospital of North Norway Tromsø, Norway) mixed in 50 µL autoclaved Milli-Q water was used as a control; 50 µL S. epidermidis mixed in 50 µL autoclaved Milli-Q water was used as the control for biofilm formation; and 50 µL TSB with 50 µL autoclaved Milli-Q water was used as a medium blank control.
# [9] = HEK293 cells versus Plasmodium falciparum 3D7 culture, HEK293 vs 3D7, read-out: SI (selectivity index = cytotoxicity in HEK293/activity in 3D7)
SMILES,IC50 [2] [nM],IC50 [4] [nM],IC50 [5] [nM],IC50 [6] [nM],melting point [°C],IC50 at 72 h [1] [nM],"selectivity ratio at 72 h [3, 9]",further results
"c1ccc2c(c1)Nc1ccnc3cccc-2c13 [Compound 4a, 7H-pyrido[4,3,2-gh]phenanthridine]",548 ± 3,594 ± 140,1630 ± 173,721 ± 27,–,2830 ± 92,5.2,MIC (S. aureus (ATCC 25923)): 100 µM; MIC (E. faecalis (ATCC 29122)): 100 µM
"c1ccc2c(c1)[nH]c1c3cccnc3ccc21 [Compound 16, 11H-pyrido[3,2-a] carbazole]",–,–,–,–,–,–,–,"3D7 IC50 ([2]; listed as 15): little to no activity; % at 80 µM (printed in MDA-MB-231 IC50 column) ([4]; MDA-MB-231, 80 µM): 80% at 80 µM; % at 80 µM (printed in HCT116 IC50 column) ([6]; HCT116, 80 µM): 82% at 80 µM"
"C[n+]1cccc2c3c(ccc21)[nH]c1ccccc13 [Compound 10, 4-Methyl-7H-pyrido[2,3-c]carbazolium Iodide]",128 ± 2,–,–,–,–,–,214,"activity against the panel of cancer cell lines [7]: no activity; % at 40 µM (printed in MDA-MB-231 IC50 column) ([4]; MDA-MB-231, 40 µM): 24% at 40 µM; % at 40 µM (PC-3) [5]: 36% at 40 µM; % at 40 µM (printed in HCT116 IC50 column) ([6]; HCT116, 40 µM): 38% at 40 µM"
"c1cnc2c(c1)ccc1c3ccccc3[nH]c12 [Compound 18, 11H-Pyrido[2,3-a]carbazole]",–,–,–,–,164,–,–,–
"COc1ccc(C[C@H](N)C(=O)N[C@H]2[C@@H](O)[C@H](n3cnc4c(N(C)C)ncnc43)O[C@@H]2CO)cc1 [Puromycin, puromycin, reference compound]",93 ± 2,300,270,85,–,3 ± 3,–,selectivity ratio at 72 h [3]: 0.03

# Second part, led by results:
IC50 [2] [nM],IC50 [4] [nM],IC50 [5] [nM],IC50 [6] [nM],melting point [°C],SMILES,IC50 at 72 h [1] [nM],"selectivity ratio at 72 h [3, 9]",further results
2410 ± 42,16400,–,17000,–,"c1cnc2c(c1)ccc1[nH]c3ccccc3c12 [Compound 20, 7H-Pyrido[3,2-c]carbazole]",–,–,% at 40 µM (PC-3) [5]: 47% at 40 µM
–,–,–,–,256 to 257,"Fc1ccc2[nH]c3ccc4ncccc4c3c2c1 [Compound 9b, 10-Fluoro-7H-pyrido[2,3-c]carbazole]",–,–,MBIC [8]: 100 µM
–,–,–,–,284 to 286,"C[n+]1cccc2c3c(ccc21)[nH]c1ccccc13 (as salt: hydroiodid) [Compound 10, 4-Methyl-7H-pyrido[2,3-c]carbazolium Iodide]",–,–,–
–,–,–,–,279 to 280,"C[n+]1cccc2c3[nH]c4ccccc4c3ccc21 (as salt: hydroiodid) [Compound 21, 4-Methyl-11H-pyrido[3,2-a]carbazolium Iodide]",–,–,–
1318 ± 5,998 ± 300,2440 ± 94,742 ± 11,198,"CCn1cc2c3ccccc3nc-2c2ccccc21 [Compound 3b, 5-Ethyl-5H-indolo[3,2-c]quinoline]",3080 ± 49,2.3,–
